In patent US10292390B2, “Inhibition and dispersion of bacterial biofilms with 2-aminobenzimidazole derivatives” (WISCONSIN ALUMNI RESEARCH FOUNDATION, priority 2011, dated 2019):
Where two headings read alike, the source gives them in different places.

Experiments:
[1] = system: P. aeruginosa PAO1 biofilm; test: crystal violet static biofilm inhibition assay; assay type: cell-based, Pseudomonas aeruginosa; details: for IC50: Pseudomonas aeruginosa, PAO1; for inhibition of biofilm growth: at 100 micro M, 24 h; for anti-biofilm (biofilm inhibitory) activity in words: initial screen at 500 μM, 12 and 24 h
Method: Stilbenes 1, 2, and 4a-b were tested for inhibition of biofilm formation in a wild-type P. aeruginosa strain (PAO1) at 500 μM using standard static biofilm growth assays.
Biofilms were grown in a modified M9 minimal media in 96-well microtiter plates, and crystal violet staining of the surface-associated biomass was used to quantify biofilm growth at 12 and 24 h (see The Examples).
A modified version of the widely used crystal violet (CV) microtiter plate biofilm assay, first described by Christensen et al. and later popularized by O'Toole et al., [57] was used in this study and is described in detail below.
Compounds to be evaluated for biofilm modulatory activity were added to the assay microtiter plates by means of a “solvent evaporation” delivery. This delivery method involves preparation of compound stock solutions, addition of stocks to microtiter plates at appropriate volumes to obtain target molar quantities per well, evaporation of the solvent, and re-solubilization of the compound in the final assay medium upon inoculum addition. This delivery method was adopted to avoid the biofilm inhibitory effects observed with an “organic solvent-to-solution” delivery method (e.g., DMSO-to-media; data not shown), which is more commonly done in small molecule screens. EtOH was chosen as the solvent for solvent evaporation delivery in this study based on the chemical resistance limitations of polystyrene microtiter plates. Prior to each experiment, EtOH stock solutions of compounds being evaluated were prepared, diluted, and added to microtiter plates at varied volumes to obtain a target final concentration per well upon inoculum addition. Plates were incubated at 37° C. to evaporate EtOH and sterilized in a Baker SterilGARD III Advance Biological Safety Cabinet by UV-C germicidal irradiation for 30 min (lids removed). EtOH only was added to wells designated as “no compound” positive controls (Pos. Con.) and “no bacteria” negative controls (note, controls lacking bacteria yielded no significant staining in the CV assay (data not shown)). The outer wells were never used for test samples as evaporation and significant deviations in growth were observed; thus, outer wells were filled with sterile 18 MΩ H2O to minimize these effects.
Bacterial samples for biofilm assessment were prepared by first streaking a freezer stock of P. aeruginosa PAO1 on an LB/agar plate and incubating at 37° C. for ˜16 h. Single colonies were selected and used to inoculate LB medium (10 mL) in a 25 mL Erlenmeyer flask. The culture was grown on an incubator-shaker (200 rpm) at 37° C. for ˜16 h to an OD600 of ˜1.0. Overnight cultures were gently decanted into falcon tubes to minimize transfer of biofilm produced during overnight growth. An inoculating culture was prepared by centrifuging an aliquot of overnight culture at 3,000 rpm for 10 min, removal of the supernatant, and then re-suspending the pellet in 95:5 M9+:LB at 10-fold the initial volume (effecting a 1-in-10 dilution; OD600 ˜0.1-0.2). Using a multi-channel pipette, this culture was added to test microtiter plates in 200 μL aliquots. The well contents were mixed using a 10 μL multi-channel pipette in a swirling motion; insoluble compound samples were noted and later excluded from the data set as needed.
Plates were covered with the provided lid and incubated statically at 37° C. for 12-24 h. Maximal biofilm formation is obtained at 24 h, after which the amount of biofilm declines unless fresh nutrients are provided. After incubation, the OD600 was measured, and the bacterial suspension was removed by inverting and shaking the plate over a waste pan and then taping on a paper towel (process termed “dumping”). Non-biofilm associated biomaterial was removed by adding 225 μL PBS and dumping (process termed “washing”) and then repeating this washing process. Biofilm was fixed to the microtiter plates by uncovering the plate and thermally dehydrating at 37° C. […]

[2] = system: Gram-positive bacteria; details: WO 2010/144686 (7); ref. 34 (18); cited from earlier work
[3] = 12 h incubation, CV assay, read-out: 12 h biofilm IC50
[4] = 24 h incubation, CV assay, read-out: 24 h biofilm IC50
[5] = Table 1, crystal violet, read-out: IC50, P. aeruginosa PAO1 biofilm inhibition

| IC50 [1, 3] | IC50 [1, 4] | IC50 [1, 5] | Compound | inhibition of biofilm growth [1] | anti-biofilm (biofilm inhibitory) activity in words [1] | biofilm inhibition in Gram-positive bacteria as reported [2] |
| --- | --- | --- | --- | --- | --- | --- |
| 26.3 µM | 20.3 µM | 20 µM | Nc1nc2cc(I)ccc2[nH]1 [Compound 10, 5-Iodo-2-aminobenzimidazole] |  |  |  |
| 22 µM | 22.2 µM | 22 µM | Nc1nc2cc(Br)ccc2[nH]1 [Compound 11, 5-Bromo-2-aminobenzimidazole] |  |  |  |
| 25.7 µM | 27.5 µM | 28 µM | Nc1nc2cc(Cl)ccc2[nH]1 [Compound 12, 5-Chloro-2-aminobenzimidazole] |  |  |  |
| 30.2 µM | 35.2 µM | 35 µM | Nc1nc2cc(F)ccc2[nH]1 [Compound 13, 5-Fluoro-2-aminobenzimidazole] |  |  |  |
| 186 µM | 139 µM | 140 µM | COC(=O)c1ccc2[nH]c(N)nc2c1 [Compound 15, 5-Carboxylic acid methyl ester-2-aminobenzimidazole] |  |  |  |
| 199 µM | 175 µM | 180 µM | N#Cc1ccc2[nH]c(N)nc2c1 [Compound 17, 5-Cyano-2-aminobenzimidazole] |  |  |  |
| 27.3 µM | 25.4 µM | 25 µM | Cc1ccc2[nH]c(N)nc2c1 [Compound 20, 5-Methyl-2-aminobenzimidazole] |  |  |  |
| 73.8 µM | 80.1 µM | 80 µM | COc1ccc2[nH]c(N)nc2c1 [Compound 22, 5-Methoxy-2-aminobenzimidazole] |  |  |  |

Further lines, the compound ahead of its results:

| Compound | IC50 [1, 3] | IC50 [1, 4] | IC50 [1, 5] | inhibition of biofilm growth [1] | anti-biofilm (biofilm inhibitory) activity in words [1] | biofilm inhibition in Gram-positive bacteria as reported [2] |
| --- | --- | --- | --- | --- | --- | --- |
| Nc1nc2ccc(/C=C/c3ccccc3)cc2[nH]1 [Compound 1, 6-Styryl-2-aminobenzimidazole] | 13 µM | 8.9 µM |  | 56% |  |  |
| Nc1nc(-c2ccc(/C=C/c3ccccc3)cc2)c[nH]1 [Compound 2, 4-(E)-Stilbene-2-aminoimidazole] | 3.8 µM | 18 µM |  | 48% |  |  |
| S=c1[nH]c2ccccc2[nH]1 [Compound 2-TBI, 2-thiobenzamidazole, reference compound] |  |  |  |  | significantly less active than 2-ABI derivatives |  |
| C(=C\c1ccc2[nH]ccc2c1)/c1ccccc1 [Compound 4a, 5-Styryl-1H-indole] |  |  |  |  | Neither indole, derivative (4a-b), however, showed appreciable anti-biofilm activity |  |
| C(=C\c1ccc2cc[nH]c2c1)/c1ccccc1 [Compound 4b, 6-Styryl-1H-indole] |  |  |  |  | Neither indole, derivative (4a-b), however, showed appreciable anti-biofilm activity |  |
| C(=C\c1ccc2nc[nH]c2c1)/c1ccccc1 [Compound 5, 6-Styryl-1H-benzimidazole] |  |  |  |  | complete loss of inhibitory activity |  |
| COc1ccc2[nH]c(=S)[nH]c2c1 [Compound 5-OMe-2-TBI, reference compound] |  |  |  |  | significantly less active than 2-ABI derivatives |  |
| C(=Cc1ccccc1)c1ccccc1 [Compound 6, Stilbene, reference compound] |  |  |  |  | complete loss of inhibitory activity |  |
| Nc1ncc[nH]1 [Compound 8, 2-aminoimidazole, reference compound] |  |  |  |  | neither 2-AI (8) nor guanidine (9) was found to display significant inhibitory activity |  |
| N=C(N)N [Compound 9, Guanidine, reference compound] |  |  |  |  | neither 2-AI (8) nor guanidine (9) was found to display significant inhibitory activity |  |
| Nc1nc2cc(C(=O)O)ccc2[nH]1 [Compound 16, 5-Carboxylic acid-2-aminobenzimidazole] |  |  |  |  | total loss |  |
| Nc1nc2cc([N+](=O)[O-])ccc2[nH]1 [Compound 18, 5-Nitro-2-aminobenzimidazole] | 49.6 µM | 63.1 µM | 63 µM |  |  | reported to be a biofilm inhibitor in Gram-positive bacteria |
| Cc1cccc2[nH]c(N)nc12 [Compound 19, 4-Methyl-2-aminobenzimidazole] | 37.6 µM | 38.7 µM | 39 µM |  |  |  |
| Nc1nc2cc3ccccc3cc2[nH]1 [Compound 24, 2-Amino-1H-naphtho[2,3-d]imidazole] | 54.5 µM | 48.3 µM | 48 µM |  |  |  |
